Reference: patent US20220251079A1, “BENZO[B][1,8]NAPHTHYRIDINE ACETIC ACID DERIVATIVES AND METHODS OF USE” (STINGTHERA, INC., priority 2019, published 2022)

Legend:
[1] = target: T1, human STING protein (140-379) (Homo sapiens, UniProt Q86WV6, H232R); experiment: Radiometric filtration binding competition assay (WT_FBA_HIS-SUMO-hSWAT); conditions: read-out: WT-hSWAT IC50
T1 construct: 6XHIS-SUMO-hSTING (140-379); made in house; host or cells: BL-21(DE3) E. coli, pET vector
Description: A radiometric filtration binding competition assay was performed to quantify the binding affinity of compounds of the present application for the human or mouse STING protein, or associated HAQ human isoform. The competition format filtration binding assay detects the ability of small molecule compounds from binding to and inhibiting the subsequent binding of a tritiated [H3] […] The resulting dose response was fit by non-linear regression to determine an IC50 value, from which a Ki value for each compound was extrapolated.
Briefly, the recombinant C-terminal ligand binding domain of the human STING protein (140-379) or mouse STING protein (139-328) [0.5 μM] was incubated in the presence of a compound of the present application (8 point, 2 fold dilution starting at 300 μM) for 30 min or under control conditions. […] The resulting complexes were then filtered, dried, and scintillation fluid was added and the remaining radio signal was measured to determine the degree of compound ligand inhibition. This assay format was optimized for both the WT and HAQ isoforms of the human protein and the mouse orthologue protein.
Parameters optimized: • a. Form of protein: 6×HIS-SUMO tag or untagged • b. Concentration of target protein: Minimum concentration that achieved >80 max signal • c. Assay DMSO concentration: 10%-0.1% • d. Assay Buffer: Base (Tris or phosphate), Salt concentration, +/−Tween (0.1-2%) • e. […] Probe Concentration: Minimum concentration that achieved max assay window • g. Assay Format: Scintillation Proximity Bead or Filtration Binding Plate • h. Assay Plate: 384 vs 96 well format • i. Assay incubation times for successive incubation steps
WT-hSWAT: WT_FBA_HIS-SUMO-hSWAT IC50 (μM) (“WT”=Wild-type); and WT-mSWAT: MOUSE_FBA_HIS-SUMO-mSWAT C50 (μM) which is the mouse isoform of STING protein.

STING protein = target: T2, STING protein (Homo sapiens, UniProt Q86WV6, H232R); experiment: Cell based reporter assay of IRF activation (THP1-dual-KI R232, IRF luciferase); conditions: THP-1; read-out: THP1-dual-KI R232_IRF(Luciferase)_Activity Maximum measured (%)
T2 construct: host or cells: THP-1 dual reporter cells, TMEM173 modified from HAQ to R232 (THP1-dual-KI R232)
T2 sequence (Q86WV6 whole entry H232R): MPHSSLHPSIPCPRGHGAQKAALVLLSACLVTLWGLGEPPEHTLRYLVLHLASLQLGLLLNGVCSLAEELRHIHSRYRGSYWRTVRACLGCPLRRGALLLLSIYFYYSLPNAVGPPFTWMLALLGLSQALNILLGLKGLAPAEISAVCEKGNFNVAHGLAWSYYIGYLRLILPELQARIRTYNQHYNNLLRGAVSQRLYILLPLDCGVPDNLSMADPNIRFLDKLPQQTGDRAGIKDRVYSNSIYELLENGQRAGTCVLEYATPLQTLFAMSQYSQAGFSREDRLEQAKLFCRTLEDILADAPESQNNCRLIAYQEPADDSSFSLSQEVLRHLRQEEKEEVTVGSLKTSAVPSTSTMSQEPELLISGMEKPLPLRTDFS
From the text: Cell reporter assays were developed to measure the ability of compounds of the application to activate the STING protein and activate both IRF/IFN and the NFkB signaling pathways in the myeloid derived cell line THP-1, which is commercially available from several suppliers. Briefly, THP-1 monocytes were transfected and selected for stable integration of 2 reporter constructs. Clones incorporating stably integrated vectors were further selected by antibiotic resistance to blastocidin and zeocin. The reporter constructs included: (1) firefly luciferase reporter gene under the control of an ISG54 promoter fused to five interferon (IFN)-stimulated response elements to measure IRF transcription factor binding activity and (2) secreted embryonic alkaline phosphatase reporter gene under transcription control of an IFN-beta minimal promoter fused to 5 copies of the NFkB consensus transcriptional response element and 3 copies of the c-Rel binding site.
The resulting THP-1 cell line was further modified to incorporate 3 amino acid point mutations (H71R A230G Q293R). This modification of the native TMEM173 gene in THP-1 cells (HAQ) was designed to produce a cell reporter that expressed the most common allelic variant in the human population (THP-1 R232, available from InvivoGen). Alternatively, the TMEM173 gene was knocked out to provide a congenic control to counter-screen for compound activation that was independent of the STING protein (THP-1 STING KO).
Once cell lines were established, reporter assay protocols were developed and optimized to screen small molecule compounds for agonist activity. Assay optimization for efficacy and Z′ value included titration of the following parameters:
1. No pre-activation with PMA
2. […]cells/well in 96 well plate format
7. Cell Titer Glo reagent (Promega) following supermatant removal
9. 8 point, 2 fold, duplicate starting at 150 μM PP28T

hSTING-R232 = target: T3, hSTING-R232 (Homo sapiens, UniProt Q86WV6, H232R); experiment: STING Differential Scanning Fluorimetry (DSF) assay, human; assay type: binding; conditions: human STING R232-WT, 5 μM protein
T3 construct: recombinant mouse or human STING protein (aa140-379); 6xHis-SUMO elsewhere) (cleaved yes); made in house
T3 sequence (Q86WV6 140-379 H232R): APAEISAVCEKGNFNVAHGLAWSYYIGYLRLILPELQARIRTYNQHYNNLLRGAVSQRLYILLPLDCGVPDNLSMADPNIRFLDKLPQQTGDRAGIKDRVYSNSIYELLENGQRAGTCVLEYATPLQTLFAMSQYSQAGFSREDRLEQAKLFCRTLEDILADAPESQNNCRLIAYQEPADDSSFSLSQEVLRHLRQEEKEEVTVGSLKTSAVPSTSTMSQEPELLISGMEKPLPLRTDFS
Description: A STING DSF assay was performed to determine protein thermostability shift in response to small molecule ligand binding. A STING thermostability shift assay based on differential scanning fluorimetry was used to measure (1) the net shift in melting temperature (ΔTm)between the apo and ligand-bound states of the STING protein and (2) the concentration of the thermal denaturation transition (FC50) as a surrogate measure of binding affinity (Kd). Briefly, recombinant mouse or human STING protein (aa140-379) comprising the C-terminal binding domain (R232-WT) were purified by affinity chromatography and further processed to remove the purification tag, followed by gel filtration to achieve purity >95%. Protein in assay buffer was transferred to a 384 well plate and incubated with the hydrophobic fluorescent dye SYBR Orange. A temperature ramp was applied to the plate and the resulting dye fluorescence was plotted as a function of temperature. The first derivative of this function (dF/dT) was then used to extrapolate the melting temperature of the protein at various concentrations of compound and determine the thermal denaturation profile of a protein/compound complex.
2. 5 μM purified Target STING Protein
4. Buffer: 100 mM NaCl, 30 mM HEPES, pH 7.5
5. Thermal Ramp: 0.5° C./min
7. 11 point, 2 fold dilution, duplicate, 300 μM high concentrations

T1 sequence (Q86WV6 140-379 H232R): as above

| SMILES | IC50 [1] [µM] | Emax (STING protein) [%] | WT_DSF_hSWAT Tm Shift (° C.) (hSTING-R232) |
| --- | --- | --- | --- |
| CO[C@H]1C[C@@H](N(C)c2ccc3c(=O)c4ccc(Cl)c(SC)c4n(CC(=O)O)c3n2)C1 (single isomer, unassigned) [Compound 44, 2-(8-chloro-2-(((1s,3s)-3-methoxycyclobutyl) (methyl)amino)-9-(methylthio)-5-oxobenzo[b][1,8]naphthyridin-10(5H)-yl)acetic acid] | 20 to 100 | > 50 | D (“D” > 7° C.) |
| CO[C@H]1C[C@H](N(C)c2ccc3c(=O)c4ccc(Cl)c(SC)c4n(CC(=O)O)c3n2)C1 (single isomer, unassigned) [Compound 70, 2-(8-chloro-2-(((1r,3r)-3-methoxycyclobutyl)(methyl)amino)-9-(methylthio)-5-oxobenzo[b][1,8]naphthyridin-10(5H)-yl)acetic acid] | < 20 | > 50 | D (“D” > 7° C.) |
| COc1c(Cl)ccc2c(=O)c3ccc(C(C)C)nc3n(CC(=O)O)c12 [Compound 1] | 100 to 300 | > 50 | D (“D” > 7° C.) |
| Cc1ccc2c(=O)c3ccc(Cl)c(N(C)C)c3n(CC(=O)O)c2n1 [Compound 4] | 20 to 100 | > 50 | D (“D” > 7° C.) |
| CN(C)c1c(Cl)ccc2c(=O)c3ccc(C(C)(C)C)nc3n(CC(=O)O)c12 [Compound 5, [2-tert-butyl-8-chloro-9-(dimethylamino)-5-oxobenzo[b]1,8-naphthyridin-10-yl]acetic acid] | < 20 | > 50 | D (“D” > 7° C.) |
| CN(C)c1c(Cl)ccc2c(=O)c3ccc(Nc4ccccc4)nc3n(CC(=O)O)c12 [Compound 6] | < 20 | > 50 | D (“D” > 7° C.) |
| CC(C)c1ccc2c(=O)c3ccc(Cl)c(N(C)C)c3n(CC(=O)O)c2n1 [Compound 7] | < 20 | > 50 | D (“D” > 7° C.) |
| CCc1ccc2c(=O)c3ccc(Cl)c(N(C)C)c3n(CC(=O)O)c2n1 [Compound 8] | < 20 | > 50 | D (“D” > 7° C.) |
| Cc1ccc2c(=O)c3c(O)cc(Cl)c(N(C)C)c3n(CC(=O)O)c2n1 [Compound 9] | 100 to 300 | > 50 | C (“C” = 2-7° C.) |
| Cc1ccc2c(=O)c3ccc(Cl)c(N(C)C)c3n(CC(=O)NS(C)(=O)=O)c2n1 [Compound 10] | > 300 | > 50 | C (“C” = 2-7° C.) |
| Cc1ccc2c(=O)c3ccc(Cl)c(N(C)C)c3n(CC(=O)NC#N)c2n1 [Compound 11] | > 300 | < 5 | B (“B” = 0-2° C.) |
| CSc1c(Cl)ccc2c(=O)c3ccc(C(C)(C)C)nc3n(CC(=O)O)c12 [Compound 12] | < 20 | > 50 | D (“D” > 7° C.) |
| CSc1ccc2c(=O)c3ccc(C(C)(C)C)nc3n(CC(=O)O)c2c1SC [Compound 13] | > 300 | > 50 | B (“B” = 0-2° C.) |
| CC(C)(C)c1ccc2c(=O)c3ccc(Cl)c(F)c3n(CC(=O)O)c2n1 [Compound 14] | > 300 | > 50 | B (“B” = 0-2° C.) |
| CCc1nc2c(cc1Cl)c(=O)c1ccc(Cl)c(N(C)C)c1n2CC(=O)O [Compound 17, 2-(3,8-dichloro-9-(dimethylamino)-2-ethyl-5-oxobenzo[b][1,8]naphthyridin-10(5H)-yl)acetic acid] | 20 to 100 | > 50 | C (“C” = 2-7° C.) |
| CCOc1nc2c(cc1Cl)c(=O)c1ccc(Cl)c(N(C)C)c1n2CC(=O)O [Compound 18, 2-(3,8-dichloro-9-(dimethylamino)-2-ethoxy-5-oxobenzo[b][1,8]naphthyridin-10(5H)-yl) acetic acid] | < 20 | > 50 | C (“C” = 2-7° C.) |
| CN(C)c1ccc2c(=O)c3ccc(Cl)c(N(C)C)c3n(CC(=O)O)c2n1 [Compound 19, sodium 2-(8-chloro-2,9-bis(dimethylamino)-5-oxobenzo[b][1,8]naphthyridin-10(5H)-yl)acetate] | 20 to 100 | > 50 | D (“D” > 7° C.) |
| CN(C)c1c(Cl)ccc2c(=O)c3ccc(C(C)(C)C(N)=O)nc3n(CC(=O)O)c12 [Compound 20, 2-(2-(1-amino-2-methyl-1-oxopropan-2-yl)-8-chloro-9-(dimethylamino)-5-oxobenzo[b][1,8]naphthyridin-10(5H)-yl)acetic acid] | 100 to 300 | > 50 | C (“C” = 2-7° C.) |
| COc1ccc2c(=O)c3ccc(Cl)c(N(C)C)c3n(CC(=O)O)c2n1 [Compound 21, 2-(8-chloro-9-(dimethylamino)-2-methoxy-5-oxobenzo[b][1,8]naphthyridin-10(5H)-yl) acetic acid] | 20 to 100 | > 50 | C (“C” = 2-7° C.) |
| CSc1c(Cl)ccc2c(=O)c3ccc(N(C)C)nc3n(CC(=O)O)c12 [Compound 22, sodium 2-(8-chloro-2-(dimethylamino)-9-(methylthio)-5-oxobenzo[b][1,8]naphthyridin-10(5H)-yl)acetate] | 20 to 100 | > 50 | D (“D” > 7° C.) |
| CCOc1c(Cl)ccc2c(=O)c3ccc(N(C)C)nc3n(CC(=O)O)c12 [Compound 23, sodium 2-(8-chloro-2-(dimethylamino)-9-ethoxy-5-oxobenzo[b][1,8]naphthyridin-10(5H)-yl)acetate] | 100 to 300 | > 50 | C (“C” = 2-7° C.) |
| CO[C@H]1C[C@H](N(C)c2ccc3c(=O)c4ccc(C)c(N(C)C)c4n(CC(=O)O)c3n2)C1 [Compound 66, 2-(9-(dimethylamino)-2-(((1r,3r)-3-methoxycyclobutyl)(methyl)amino)-8-methyl-5-oxobenzo[b][1,8]naphthyridin-10(5H)-yl)acetic acid] | 100 to 300 |  | C (“C” = 2-7° C.) |
| CSc1c(Cl)ccc2c(=O)c3cc(Cl)c(N(C)CC4CCOCC4)nc3n(CC(=O)O)c12 [Compound 76, sodium 2-(3,8-dichloro-2-(methyl((tetrahydro-2H-pyran-4-yl)methyl)amino)-9-(methylthio)-5-oxobenzo[b][1,8]naphthyridin-10(5H)-yl)acetate] | < 20 |  | D (“D” > 7° C.) |
